{"source": "patent US7148014B2", "about": "“Methods of inhibiting phagocytosis” (University of Pennsylvania, priority 1993, dated 2006)", "key": {"[1]": {"test_system": "FcγRIIA mediated phagocytosis in monocytes", "assay": "Phagocytosis of IgG-sensitized RBCs (EA) by cultured monocytes treated with ODN-liposome complexes", "assay_type": "cell-based, human", "conditions": "for phagocytic index (PI): untreated PI 220±8.8", "protocol": "Monocytes (1×10^5 cells/ml) were incubated with complexes of 4 μg/ml of LIPOFECTAMINE and ODNs (1.0 μM each of the linear control or the linear Syk antisense ODNs, or 0.2 μM each of the stem-loop control or the stem-loop Syk antisense ODN) for 2 days, and the phagocytosis of IgG-sensitized red blood cells (EA) was examined. Phagocytic index (PI)=number of ingested RBCs/100 cells. Each bar represents the mean±SEM of three separate experiments.\n(§1) Antisense or scrambled control ODNs were modified to be protected from nucleases. One phosphodiester backbone at the 5-prime terminus and two at the 3-prime terminus were modified with phosphorothioate. Prediction of secondary structures of Syk mRNA (Law et al, J. Biol. Chem. 269:12310 (1994)) and ODNs were carried out with the MacDNASIS program (Hitachi Software, San Bruno, Calif.) on a Macintosh computer. Linear 17 mer Syk antisense ODN, having the sequence of 5′-[…]-3′ (SEQ ID NO:9), targets the area surrounding the translation initiation codon of Syk mRNA. Stem-loop Syk antisense ODN is a 57 mer containing sequences complementary to three different target sites, target I (the area of the translation initiation, nucleotide no. 159 to 173) , target II (451 to 463) , and target III (802 to 816) of Syk mRNA (Law et al, J. Biol. Chem. 269:12310 (1994)) (FIG. 5). The stem-loop Syk antisense ODN forms a stem and loop structure by itself and was designed to contain minimal intramolecular secondary structures in the loop domain (FIG. 6) . The sequence of the stem-loop Syk antisense ODN is 5′ - […] C-3′ (SEQ ID NO:10). Linear 17 mer control ODN has a random sequence of 5′-[…]-3′ (SEQ ID NO:11). Stem-loop 61 mer control ODN has a random sequence of 5′ -[…]- 3′ (SEQ ID NO:12) within the loop domain. The linear and stem-loop control ODNs were also modified at both the 5-prime and 3-prime termini by phosphorothioates. Preparation of liposomes: One μg each of the control scrambled phosphodiester ODNs, the linear and stem-loop Syk antisense ODNs in 50 μl of PBS were incubated with 4 μg (2 μl) of LIPOFECTAMINE™ (GIBCO BRL, Life Technologies, Inc. Gaithersburg, Md.). The ODN-liposome complexes were allowed to form at the room temperature for 45 min. Monocytes isolation and culture: Peripheral blood mononuclear cells from healthy individuals were isolated by a standard adherence procedure (Darby et al, J. Immunol. 152:5429 (1994)). Briefly, the heparinized blood was centrifuged on Ficoll-Hypaque (Lymphocyte Separation Medium; Organon Teknika, Durham, N.C.) and interface cells were washed twice in PBS. Mononuclear cells were resuspended in complete medium containing RPMI 1640 (GIBCO BRL, Life Technologies, Inc. Gaithersburg, Md.) with 10% heat-inactivated FCS and 2 mM L-glutamine. Cells were allowed to adhere at 37° C. onto tissue culture flasks precoated with FCS. After 45 to 90 min non-adherent cells were removed with extensive washing in HBSS. Cells were harvested by vigorous agitation. The yield of monocytes ranged from 2–6×10^7 cells/500 ml of blood. Monocytes were routinely more than 98% viable judged by trypan blue exclusion. Isolated monocytes were maintained in RPMI 1640 supplemented with L-glutamine (2 mM) and 10% heat-inactivated FCS at 37° C. with 5% CO2. Oligodeoxynucleotides treatment of cells. 1×10^5 Monocytes were incubated with ODN-liposome complexes containing 2 μg/ml of LIPOFECTAMINE and 0.5 μM of the linear control, 0.5 μM of the linear Syk antisense ODN or 0.1 μM of the stem-loop control, 0.1 μM of the stem-loop Syk antisense ODN in 0.3 ml of RPMI 1640 medium without FCS in a 24-well plate (Falcon; Becton Dickinson Labware, Lincoln Park, N.J.) at 37° C. for 4 h. Medium was added to a 1 ml final volume with RPMI 1640 containing 10% FCS and cells were then incubated at 37° C. for 2 days. […]"}, "Syk mRNA": {"test_system": "Syk mRNA", "assay": "RT-PCR / Southern hybridization of Syk mRNA in monocytes", "assay_type": "cell-based, human", "conditions": "2 days", "protocol": "FIG. 8. Effect of Syk antisense ODNs on Syk mRNA in monocytes. Total RNA was isolated from monocytes (1×10^5 cells/ml) treated with complexes of 4 μg/ml of LIPOFECTAMINE and the ODNs (1.0 μM each of the linear control or the linear Syk antisense ODN, or 0.2 μM each of the stem-loop control or the stem-loop Syk antisense ODN) for 2 days, and cDNA was synthesized from total RNA with random hexanucleotide primers. PCR was performed with Syk cDNA as templates with two Syk primers (Syk-H and Syk-M). PCR products were analyzed by Southern hybridization and hybridized bands were visualized by chemiluminescent detection reagents.\nas §1, with “PBS.” for “PBS. Mononuclear cells were resuspended in complete medium containing RPMI 1640 (GIBCO BRL, Life Technologies, Inc. Gaithersburg, Md.) with 10% heat-inactivated FCS and 2 mM L-glutamine. Cells were allowed to adhere at 37° C. onto tissue culture flasks precoated with FCS. After 45 to 90 min non-adherent cells were removed with extensive washing in HBSS. Cells were harvested by vigorous agitation. The yield of monocytes ranged from 2–6×10^7 cells/500 ml of blood. Monocytes were routinely more than 98% viable judged by trypan blue exclusion. Isolated monocytes were maintained in RPMI 1640 supplemented with L-glutamine (2 mM) and 10% heat-inactivated FCS at 37° C. with 5% CO2. Oligodeoxynucleotides treatment of cells. 1×10^5 Monocytes were incubated with ODN-liposome complexes containing 2 μg/ml of LIPOFECTAMINE and 0.5 μM of the linear control, 0.5 μM of the linear Syk antisense ODN or 0.1 μM of the stem-loop control, 0.1 μM of the stem-loop Syk antisense ODN in 0.3 ml of RPMI 1640 medium without FCS in a 24-well plate (Falcon; Becton Dickinson Labware, Lincoln Park, N.J.) at 37° C. for 4 h. Medium was added to a 1 ml final volume with RPMI 1640 containing 10% FCS and cells were then incubated at 37° C. for 2 days.”"}, "[2]": {"assay": "Stability of antisense ODNs to serum nucleases", "assay_type": "in vitro ADME", "conditions": "for resistance to serum nucleases: modified with phosphorothioate"}, "[3]": {"test_system": "COS-1 cells transfected with FcγRIIIA-α/γ", "assay": "Phagocytosis of IgG-sensitized RBCs (EA) by transfected COS-1 cells", "assay_type": "cell-based", "conditions": "for phagocytic activity restored after washing: pretreated 400 μM", "protocol": "(§2) FcγRIIIA isoforms, FcγRIIIA-γγ, FcγRIIIA-ζζ, were generated by cotransfection of COS-1 cells with cDNA of γ or ζ as well as cDNA of α. Transfections of cDNAs were carried out with a modified DEAE-Dextran method. Briefly, 300,000 COS-1 cells were seeded on 35 mm well plates 24 hours prior to transfection. Plates of 70 to 80% confluence were washed twice and incubated for 30 minutes with Dulbeco's Modification of Eagle's Medium (DMEM, Gibco BRL, Grand Island, N.Y.) before transfection. Four μg of plasmid DNA (0.5 μg/μl) was slowly added to 1 ml of a transfection buffer containing Nu medium (DMEM with 10% of NuSerum [Collaborative Biomedical, Two Oak Park, Bedford, Mass.], 1 mg/ml of DEAE Dextran and 100 μM chloroquine. The transfection buffer containing DNA was added to COS-1 cells with incubation for 4 hours at 37° C. Cells were then shocked with 10%. DMSO in phosphate buffered saline (PBS) for 2 minutes, washed twice with DMEM and grown in NuSerum supplemented DMEM. Cells were studied 48 hours following transfection.\n(§3) Binding and pragocytosis of IgG-sensitized RSCs (EA): Sterile sheep red blood cells (10^9/ml) in calcium and magnesium-free PBS were sensitized by incubation with an equal volume of a subagglutinating titer of rabbit anti-sheep RBC antibody (Cappel Laboratories, Cochranville, Pa.). The IgG-sensitized RBCs (EA) were washed twice with PBS and resuspended to a final concentration of 10^9/ml for overlaying on transfected COS-1 cells. Cells were examined for rosetting (>10 EA per COS-1 cell) and phagocytosis as described previously (Indik et al, J. Clin. Invest. 88:A66 (1991)). For the analysis of phagocytosis, COS-1 cells bound with EA (after three washings) were subjected to a brief hypotonic shock (35 seconds) with hypotonic PBS to remove surface bound EA. The cells were then stained with Wright-Giemsa staining solutions, and phagocytosis (ingested EA) was determined by light microscopy. Results obtained were analyzed by Student's T-test."}, "[4]": {"test_system": "COS-1 cells transfected with FcγRIIIA-α/γ", "assay": "Binding (rosetting) of EA by transfected COS-1 cells", "assay_type": "cell-based", "protocol": "as §2, §3"}, "[5]": {"conditions": "ODN 0.2 μM, LIPOFECTAMINE complexes, 2 days"}, "[6]": {"conditions": "ODN 1 μM, LIPOFECTAMINE complexes, 2 days"}}}
{"molecule": "5′ - GGGGGGGCTGTCAGCCATGCCGTGTCTTGTCTTTGTCGCTTCTTGAGGAGCCCCCC C-3′ (SEQ ID NO:10) (antisense GGGGGGGCTGTCAGCCATGCCGTGTCTTGTCTTTGTCGCTTCTTGAGGAGCCCCCCC; DNA, backbone and methylation of C not given here; stem-loop hairpin, phosphorothioates at both termini, further chemistry not fully specified) [stem-loop Syk antisense ODN, 57 mer stem-loop ODN complementary to three target sites of human Syk mRNA, phosphorothioate-modified termini]", "values": [{"measurement": "reduction of the phagocytic signal compared with a mixture of three linear antisense oligonucleotides", "setting": "[1]", "result": "more dramatically"}, {"measurement": "reduction in phagocytosis (phagocytic index)", "setting": "[1]; [5]", "result": 89, "unit": "%"}, {"measurement": "phagocytic index (PI)", "setting": "[1]; [5]", "result": "24±4.2"}, {"measurement": "effect on Syk mRNA", "setting": "Syk mRNA; ODN 0.2 μM", "result": "completely eliminated"}, {"measurement": "stability when complexed with liposomes", "setting": "[2]; complexed with liposomes", "result": "markedly improved"}, {"measurement": "resistance to serum nucleases", "setting": "[2]", "result": "partial resistance"}, {"measurement": "stability in serum", "setting": "[2]; with phosphorothioate modifications", "result": "exceptional stability"}]}
{"molecule": "5′ -ATGGAATCATCTTGGGCATTCATTCGTTCCTCAAAGAAGAATATGAA- 3′ (SEQ ID NO:12) (listed as DNA, chemistry not given here) [stem-loop control, Stem-loop 61 mer scrambled control ODN]", "values": [{"measurement": "effect on FcγRIIA mediated phagocytosis", "setting": "[1]; ODN 0.2 μM", "result": "did not significantly affect"}, {"measurement": "effect on Syk mRNA", "setting": "Syk mRNA; ODN 0.2 μM", "result": "did not reduce"}]}
{"molecule": "5′-CGCTGTCAGCCATGCCG-3′ (SEQ ID NO:9) (DNA, backbone and methylation of C not given here; phosphorothioate linkages at both 5' and 3' termini, further chemistry not fully specified) [linear Syk antisense ODN, Linear 17 mer, phosphorothioate-modified termini, targets area surrounding translation initiation codon of human Syk mRNA]", "values": [{"measurement": "Phagocytosis reduced by (phagocytic index)", "setting": "[1]; [6]", "result": 49, "unit": "%"}, {"measurement": "phagocytic index (PI)", "setting": "[1]; [6]", "result": "113±12.3"}, {"measurement": "effect on Syk mRNA", "setting": "Syk mRNA; ODN 1.0 μM", "result": "substantially reduced"}, {"measurement": "resistance to serum nucleases", "setting": "[2]", "result": "partial resistance"}]}
{"molecule": "N#CC(C#N)=Cc1ccc(O)c(O)c1", "note": "[Tyr23, tyrphostin 23]", "values": [{"measurement": "PI (Phagocytic Index)", "setting": "[3]; Tyr23 25 μM", "result": "68 ± 4"}, {"measurement": "PI (Phagocytic Index)", "setting": "[3]; Tyr23 50 μM", "result": "26 ± 7"}, {"measurement": "PI (Phagocytic Index)", "setting": "[3]; Tyr23 100 μM", "result": "16 ± 6"}, {"measurement": "PI (Phagocytic Index)", "setting": "[3]; Tyr23 200 μM", "result": "1.2 ± 1"}, {"measurement": "PI (Phagocytic Index)", "setting": "[3]; Tyr23 400 μM", "result": 0}, {"measurement": "PI (Phagocytic Index)", "setting": "[3]; Tyr23 400 μM + washing (3 hr wash)", "result": "63 ± 7"}, {"measurement": "IC50", "setting": "[3]; dose dependent, p<0.01, read-out: concentration giving 50% inhibition of phagocytosis", "result": 25, "unit": "µM"}, {"measurement": "concentration giving complete inhibition of phagocytosis", "setting": "[3]; p<0.01", "result": "200 to 400", "unit": "µM"}, {"measurement": "phagocytic activity restored after washing", "setting": "[3]; 3 hr wash", "result": "partially"}, {"measurement": "phagocytic activity restored after washing", "setting": "[3]; overnight wash (data not shown)", "result": "completely"}, {"measurement": "viability of transfectants on inhibition of phagocytosis", "setting": "[3]; pretreated with 400 μM followed by washing", "result": "not associated with reduction in viability"}, {"measurement": "effect on binding of EA", "setting": "[4]", "result": "did not affect"}, {"measurement": "Rosetting (% Cells)", "setting": "[4]; Tyr23 25 μM", "result": "52 ± 9", "unit": "% Cells"}, {"measurement": "Rosetting (% Cells)", "setting": "[4]; Tyr23 50 μM", "result": "52 ± 8", "unit": "% Cells"}, {"measurement": "Rosetting (% Cells)", "setting": "[4]; Tyr23 100 μM", "result": "49 ± 7", "unit": "% Cells"}, {"measurement": "Rosetting (% Cells)", "setting": "[4]; Tyr23 200 μM", "result": "47 ± 5", "unit": "% Cells"}, {"measurement": "Rosetting (% Cells)", "setting": "[4]; Tyr23 400 μM", "result": "48 ± 3", "unit": "% Cells"}, {"measurement": "Rosetting (% Cells)", "setting": "[4]; Tyr23 400 μM + washing", "result": "44 ± 6", "unit": "% Cells"}]}
{"molecule": "5′-GCCCAAGATGATTCCAG-3′ (SEQ ID NO:11) (phosphorothioate linkages at both termini, number not given here) [linear control]", "values": [{"measurement": "effect on FcγRIIA mediated phagocytosis", "setting": "[1]; ODN 1 μM", "result": "did not significantly affect"}, {"measurement": "effect on Syk mRNA", "setting": "Syk mRNA; ODN 1.0 μM", "result": "did not reduce"}]}
